Data as given in US10793614B2, “Antagonists of fish reproduction” (Yissum Research Development Company of the Hebrew …, priority 2014, dated 2020).
Numbered stars: 1 amine (or outer) side, 2 acyl side, 3 side chain; on linkers, the order of the positions; unused ones are H or OH. Square brackets hold non-standard residues; d marks the D form. Suc = O=C(CCC(=O)[*:2])[*:1]; NMeV = CN[C@H](C(=O)O)C(C)C; βAla = NCCC(=O)O

Legend:
[1] = tested on: Tilapia tac3ra and tac3rb; assay: CRE-luciferase reporter assay in COS-7 cells transfected with tilapia tac3 receptor; assay type: cell-based; conditions: for effect of antagonist alone on luciferase activity (CRE-Luc): no ligand; for inhibition of luciferase activity, antagonist with native ligands: different concentrations added concomitantly with 0.1 nM NKB or NKF
From the text: There are two signal transduction pathways, one is relayed trough cAMP/PKA (protein kinase A), and the second is trough Ca2+/PKC. The PKA pathway is activated by CRE (cAMP response element) and the PKC through SRE ([…] response element).
In order to differentiate between the PKC and PKA signal transduction pathways, a sensitive luciferase (LUC) reporter gene assay was utilized by using the LUC transcriptionally regulated by a serum response element (SRE; Invitrogen) or cyclic AMP (cAMP) response element (CRE; Invitrogen). Tilapia tac3ra and tac3rb (GenBank accession numbers KF471674 and KF471675, respectively) or zebrafish tac3ra and tac3rb (JF317292, and JF317293, respectively) were cloned in pcDNA3.1 expression vector (Zeo-; Invitrogen) under the control of the CMV promoter.
Transient transfection, cell procedures and stimulation protocols were generally according to (Levavi-Sivan et al., 2005, Mol Cell Endocrinol 236:17-30; Biran et al., 2008, ibid, Biran et al., 2012, ibid, Biran et al., 2014 ibid). Briefly, COS-7 cells were grown in DMEM supplemented with 10% FBS, 1% glutamine, 100 U/ml penicillin, and […] streptomycin (Biological Industries) under 5% CO2 until confluent. Cotransfection of either pc-tac3ra, pc-tac3rb (at 3 μg/plate), a reporter plasmid (at 2 μg/plate), and pCM.
Transfection was carried out with FuGENE 6.0 reagent (Roche). The cells were serum starved for 36 h, stimulated with vehicle or various concentrations of either human NKB, tilapia NKB, tilapia NKF, zebrafish NKBa, NKBb or zebrafish NKF for 6 h, and then harvested and analyzed.
Lysates prepared from the harvested cells were assayed for both luciferase activity and β-galactosidase activity, which was used as an internal standard to normalize the luciferase activity directed by the test plasmid, as described previously. Transfection experiments were performed in triplicate with three independently isolated sets.
The concentrations of ligand used were from 1 nM to 1 μM. Treatments were performed in quadruplicate in three independent experiments.
Each antagonist was added at different concentrations with a constant concentration of the wild-type NKB or NKF, at a dose of the ligand (10^−8M) that gave a response close to the ED50. The results were analyzed by Prism software, according to a non-linear regression one-site competition curve.
The effect of NKB antagonists was tested in tilapia when each antagonist was added at different concentration concomitantly with NKB at 10^−8 M ([…]). Tilapia NKB increased the luciferase activity by 1.8 fold. The various antagonists reduced this response by approximately 60% (FIG. 1A). Similar results were obtained using the SRE response (FIG. 1B). […]

[2] = tested on: gonadotropin release in tilapia; assay: In vivo gonadotropin (FSH, LH) release in sexually mature tilapia females; conditions: 10, 100 or 500 μg/kg body weight injected; 1, 2, 4, 8 h; starting 1 hour after injection
Method: SB222200 was further tested in vivo for its NKB antagonistic activity on gonadotropin release in tilapia. Sexually mature tilapia females (0.62±0.22%; n=10/treatment) were injected with different doses of the NKB non-peptide antagonist SB222200 (10, 100 or 500 μg/kg body weight) at time 0. 1, 2, 4 and 8 hours after the injection the fish were bled from their caudal vasculature. The levels of the gonadotropins FSH and LH were determined using specific ELISA according to Aizen et al., 2007 (Aizen et al., 2007, Gen Comp Endocrinol, vol. 153, pp 323-332).

Adult male Tilapia [3] = assay: In vivo ip injection of adult male tilapia: testis histology, plasma 11KT; conditions: versus control; for increase of plasma 11KT levels: 500 μg/kg BW ip every 48 h, 0 to 12 days
Method: Adult male Tilapia (BW 90 g) were injected ip with saline and 25% DMSO, SB2222000, or the NKB antagonists Ant-4 (500 μg/kg BW every 48 h for 2 weeks, […]). The fish were bled from the caudal blood vessels into heparinized syringes every 2 days after injection. At days 7 and 14 five fish from each group were bled, striped for sperm volume and gonads were taken for Histology. Plasma was analyzed for LH, FSH and 11KT. Blood samples were collected from the caudal vasculature and centrifuged (3000 rpm for 20 minutes at 4° C.) to obtain plasma samples, which were stored at −20° C. until assayed, ELISAs were performed according to (Aizen et al., 2007, Gen Comp Endocrinol, vol. 153, pp 323-332) for FSH and LH and according to Hurvitz et al., 2005 (Gen Comp Endocrinol 140:61-73) for 11KT 1-ketotestosterone, the main androgen in fish which is involved in spermatogenesis). FIG. 6 represents histological observations of gonads from testes of treated fish versus control fish. Fish testes are organized in cysts. […] From right to left: semen from fish injected with SB222200; semen from control fish; semen from fish injected with NKB-antagonist #4. 11KT is the main androgen in fish and is involved in spermatogenesis.

Adult male Tilapia [4] = assay: In vivo growth of injected adult male tilapia; conditions: 500 μg/kg BW ip every 48 h for 2 weeks; day 21, seven days after end of treatment
Method: Adult male tilapia (BW 60 g) were injected ip with saline and 25% DMSO, SB2222000, or NKB antagonists Ant-6 (500 μg/kg BW every 48 h for 2 weeks, n=25 fish per group). Fish were weighed every 7 days.

Salmon tac3 receptor = assay: CRE-Luc reporter assay in COS-7 cells transfected with salmon tac3r; assay type: cell-based; conditions: with wild-type NKB at 10^-8 M
Method: Similar to the in-vitro experiments performed in Example 2 in Tilapia and Zebrafish, the inhibition of NKB activity was tested in Salmon fish. Salmon tac3 receptor was cloned in pcDNA3.1 expression vector (Zeo-; Invitrogen) under the control of the CMV promoter. Transfection was carried out with FuGENE 6.0 reagent (Roche). The cells were serum starved for 36 h, stimulated with vehicle or various concentrations of either tilapia NKB for 6 h, and then harvested and analyzed. Lysates prepared from the harvested cells were assayed for both luciferase activity and β-galactosidase activity, which was used as an internal standard to normalize the luciferase activity directed by the test plasmid. Transfection experiments were performed in triplicate with three independently isolated sets. The concentrations of ligand used were from 1 nM to 1 μM. Treatments were performed in quadruplicate in three independent experiments. Each antagonist (NKB-ant 4 and NKB-ant 6) was added at different concentrations with a constant concentration of the wild-type NKB (10^−8M) that gave a response close to the ED50. The results were analyzed by Prism software, according to a non-linear regression one-site competition curve. When salmon tac3 was transfected, NKB increased the luciferase activity by 1.8 fold.

Row | Compound | effect of antagonist alone on luciferase activity (CRE-Luc) [1] | inhibition of luciferase activity, antagonist with native ligands [1] | FSH levels [2] | LH levels [2] | increase of plasma 11KT levels (Adult male Tilapia [3]) | growth (body weight) (Adult male Tilapia [4]) | histological observations of testes (Adult male Tilapia [3]; 500 μg/kg BW ip every 48 h for 2 weeks) | reduction of the NKB luciferase response by antagonist (Salmon tac3 receptor)
1 | CC[C@H](NC(=O)c1c(C)c(-c2ccccc2)nc2ccccc12)c1ccccc1 [SB222200, (S)-(2)-N-(a-ethylbenzyl)-3-methyl-2-phenylquinoline-4-carboxamide] | no effect | typical inhibition curve | significant gradual decline | significant gradual decline | significantly inhibited | significant growth | – | –
2 | Succ-Asp-Ile-D-Trp-N(Me)Val-βAla-Leu-Met-NH2 (Suc-DI[dW][NMeV][βAla]LM-NH2; SMILES CC[C@H](C)[C@H](NC(=O)[C@H](CC(=O)O)NC(=O)CCC(=O)O)C(=O)N[C@H](Cc1c[nH]c2ccccc12)C(=O)N(C)[C@H](C(=O)NCCC(=O)N[C@@H](CC(C)C)C(=O)N[C@@H](CCSC)C(N)=O)C(C)C) [Ant-4] | – | – | – | – | significantly inhibited | – | more partially empty cysts with mature spermatozoa | approximately 60%
3 | CC(=O)N(C)C1(c2ccccc2)CCN(CCCC2(c3ccc(Cl)c(Cl)c3)CCCN(C(=O)c3ccccc3)C2)CC1 (stereo in doubt) [Osanetant (SR-142,801), (S)-(1)-N-{{3-[1-benzoyl-3-(3,4-dichlorophenyl)piperidin-3-yl]prop-1-yl}-4-phenylpiperidin-4-yl}-N-methyl acetamide] | no effect | typical inhibition curve | – | – | – | – | – | –
